The term inhibition denotes the drop in the measured response relative to a control, in per cent. As a reminder, the % inhibition is the change of the read-out against control, counted positive when it falls.

Experimental findings from patent US6281234A, “(2-Acylaminothiazole-4-yl)acetic acid derivative” (American Home Products Corporation, priority 1999, dated 2001) are described below.

The experiment concerns the target T1, Recombinant Rat Protein Tyrosine Phosphatase 1B (rPTP1B) (Rattus norvegicus, UniProt P20417).
T1 construct: laboratory of Dr. Barry Goldstein, Thomas Jefferson University (obtained from, not a commercial purchase)
T1 sequence (P20417 1-432): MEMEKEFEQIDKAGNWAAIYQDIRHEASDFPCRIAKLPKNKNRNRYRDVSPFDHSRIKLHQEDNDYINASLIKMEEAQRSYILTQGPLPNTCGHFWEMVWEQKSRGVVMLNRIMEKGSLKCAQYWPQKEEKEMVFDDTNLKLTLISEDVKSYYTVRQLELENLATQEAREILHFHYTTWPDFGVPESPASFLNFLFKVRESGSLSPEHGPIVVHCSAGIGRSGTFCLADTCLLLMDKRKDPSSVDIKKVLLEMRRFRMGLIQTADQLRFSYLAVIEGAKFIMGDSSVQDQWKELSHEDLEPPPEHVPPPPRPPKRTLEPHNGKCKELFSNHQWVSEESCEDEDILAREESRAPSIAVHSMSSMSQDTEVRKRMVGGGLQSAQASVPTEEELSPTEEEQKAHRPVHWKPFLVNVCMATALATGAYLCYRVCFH
Put plainly: Inhibition of recombinant rat PTP1B (rPTP1B) activity using p-nitrophenylphosphate as substrate. Format: biochemical. As to conditions: p-nitrophenyl phosphate substrate, pH 7.4, 37° C., 30 min; for inhibition at 25 µM: pH 7.4, All compounds administered at 25 μM; for % inhibition: All compounds administered at 25 μM. As for the experimental part:
Inhibition of Recombinant Rat Protein Tyrosine Phosphatase 1B (rPTP1B) Activity Using p-nitrophenylphosphate as a Substrate.
Measurement of pNPPase Activity.
The reaction is started by the addition of p-nitrophenyl phosphate and after 30 minutes at 37° C., the reaction is terminated by adding 1 ml of 0.1 N NaOH. […] The samples are read at 410 nm in a spectrophotometer and are evaluated based on a calibration curve of p-nitrophenol standard solution.
Compounds were screened robotically at a single concentration of ~25 μM. The results are expressed as percent of control, in that the amount of p-nitrophenol formed in the compound treated samples (nmol/minute/mg protein) is compared to the amount (nmol/minute/mg protein) formed in the untreated samples. p-Nitrophenylphosphatase activity is also determined in each experiment and is expressed per minute per mg protein.

For the compound `CCCCCCCCC#CCCCCCCCC(=O)Nc1nc(CC(=O)O)cs1` [Example 4], the inhibition at 25 µM was determined as 84.8%. For `CCCCCC/C=C/CCCCCCCC(=O)Nc1nc(CC(=O)O)cs1` [Example 7, 2-[((E)-1-Oxo-9-hexadecenyl)amino]-4-thiazoleacetic Acid], the inhibition at 25 µM is 83.8%. On to `CCCCCCCCCCC/C=C\CCCCC(=O)Nc1nc(CC(=O)O)cs1` [Example 5], for which the inhibition at 25 µM was 95%. On to `CCCCCC/C=C/CCCCCCCCCC(=O)Nc1nc(CC(=O)O)cs1` [Example 8, 2-[((E)-1-Oxo-11-octadecenyl)amino]-4-thiazoleacetic Acid], for which the inhibition at 25 µM stood at 96.6%. For the compound `CCCCCCCC/C=C/CCCCCCCC(=O)Nc1nc(CC(=O)O)cs1` [Example 3], the “% inhibition” value (25 µM) came out at 58.16%. In the case of `CCCCCCCC/C=C/CCCCCCCC(=O)Nc1nc(CC(=O)O)cs1` [Example 2, 2-[((E)-1-Oxo-9-octadecenyl)amino]-4-thiazoleacetic Acid], for the setting “25 µM”, the “% inhibition” value was 93.9%. Consider `[Na+].[Na+].[Na+].[O]=[V]([O-])([O-])[O-]` [Na3 VO4, reference compound], for which the “% inhibition” value turned out to be 86.3%. As to `CC/C=C\C/C=C\C/C=C\CCCCCCCC(=O)Nc1nc(CC(=O)O)cs1` [Example 9, 2-[((Z,Z,Z)-1-Oxo-9,12,15-octadecatrienyl)amino]-4-thiazoleacetic Acid], the inhibition at 25 µM was 92.4%. For `CCCCCCCC/C=C\CCCCCCCC(=O)Nc1nc(CC(=O)O)cs1` [Example 1, 2-[((Z)-1-Oxo-9-octadecenyl)amino]-4-thiazoleacetic Acid], the inhibition at 25 µM is 93.4%.

With `CCCCCC/C=C\CCCCCCCC(=O)Nc1nc(CC(=O)O)cs1` [Example 6, 2-[((Z)-1-Oxo-9-hexadecenyl)amino]-4-thiazoleacetic Acid], the inhibition at 25 µM is 93.8%.
